The text below walks through data of patent US11253589B2, “Modulation of the immune response” (priority 2007, dated 2022).

For one data set, the system named is CD4+Foxp3+ Treg. Nature of the data set: CD4+Foxp3+ Treg quantified by FACS in treated mice. Details: number of CD4+FoxP3+ Treg / number of CD4+Foxp3+ T cells / levels of LAP+ regulatory T cells / number of CD4+FoxP3:GFP+ Treg in blood and spleen: dose or concentration left out as unconfirmed. Type of data set: in vivo, mouse. In general terms: A flow cytometer gives signals particle by particle.

The next data set has as its system CD4+Foxp3:GFP+ Treg. Description: Treg suppressive activity assay. Type of data set: cell-based, mouse. As for the experimental part: Cells were cultured in serum-free X-VIVO 20™ media (BioWhittaker, Walkersville, Md., USA) for 72 hours. During the last 16 hours, cells were pulsed with 1 μCi of [^3H]thymidine (PerkinElmer, Waltham, Mass., USA) followed by harvesting on glass fiber filters and analysis of incorporated [^3H]thymidine in a beta-counter (1450 Microbeta, Trilux, PerkinElmer). Alternatively, culture supernatants were collected […] activation and the cytokine concentration was determined by ELISA using antibodies for IFN-γ, IL-17, IL-4, IL-10 from BD Biosciences and antibodies to TGF-β from R&D Systems. For suppression assays, MACS purified CD4^+CD25^− T cells from naïve C57BL/6 mice (1-5×10^4 cells/well) were stimulated with antibodies to CD3 and C57BL/6 irradiated spleen cells (0.3-1.5×10^4 cells/well) for 3 days in the presence of different ratios of CD4^+ GFP^+ retrovirus-transduced T cells.
To investigate the active suppression of MOG35-55-specific Teff by Treg, Foxp3^gpf knock in mice were immunized with MOG35-55/CFA, treated daily with intreaperitoneal ITE ([…]) and the recall response to MOG35-55 and a mitogenic antibody to CD3 antibody was studied on FACS-sorted CD4^+ T cells and CD4^+ FoxP3:GFP− Teff. […] This suppressed response to MOG35-55 was lost upon removal of the CD4^+FoxP3:GFP^+ Treg (FIG. 26). To further analyze the MOG35-55-specific suppressive activity of the CD4^+FoxP3:GFP^+ Treg, they were cocultured at different ratios and assayed for the suppression of MOG35-55 or anti-CD3-triggered proliferation of CD4^+FoxP3:GFP− Teff form 2D2 mice, which harbor a TCR specific for MOG35-55.

The subject of another data set is CD11c+ and CD11b+ cells. Nature of the data set: MHC class II expression on CD11c+ and CD11b+ cells by FACS. The note with it: ITE 200 mg/mouse ip daily or TCDD 1 mg/mouse ip on day 0; spleens 10 days after MOG35-55/CFA. The class given is in vivo. An excerpt: AHR is known to be expressed by antigen presenting cells (APC) such as dendritic cells (CD11c^+) and macrophages (CD11b^+) (Vorderstrasse and Kerkvliet, Toxicol Appl Pharmacol. 171, 117 (2001); Laupeze et al., J Immunol. 168, 2652 (2002); Hayashi et al., Carcinogenesis. 16, 1403 (1995); Komura et al., Mol Cell Biochem. 226, 107 (2001)). To analyze the effects that AHR activation by ITE might have on different APC populations, which can potentially influence the generation of Teff and Treg cells, we studied the effect of ITE and TCDD treatment on MHC class II expression by as dendritic cells (CD11c^+) and macrophages (CD11b). C57BL/6 mice were treated with ITE (200 mg/mouse administered ip, daily) or TCDD (1 mg/mouse administered ip on day 0) and immunized them with […] of MOG35-55 in CFA. Spleens were prepared 10 days later and […] expression was investigated on CD11b^+ and CD11c^+ cells by FACS.

In data set [1] the test system is CD4+Foxp3:GFP- 2D2 T cells. Nature of the data set: In vivo conversion of transferred CD4+Foxp3:GFP- 2D2 T cells into Treg. The note with it: recipients given 1 μg/mouse TCDD, immunized 2 days later with MOG35-55. As for the experimental part:
To investigate if new Treg could also be generated in vivo following TCDD administration, we transferred CD4^+Foxp3:GFP^− 2D2 T cells from CD90.2 donors into wild type CD90.1 recipients. CD4^+Foxp3:GFP^− 2D2 T cells express a MOG35-55-specific T cell receptor. The recipients were administered 1 μg/mouse TCDD and were immunized 2 days later with MOG35-55. CD4^+Foxp3:GFP^+ CD90.2 T cells (donor cells that underwent conversion into Treg upon treatment with TCDD) were then quantified by FACS.

The next data set concerns CD4+ Foxp3+ Treg. Nature of the data set: CD4+Foxp3+ Treg levels in AHR-d mice. The class given is in vivo. Conditions: TCDD 1 μg/mouse. An excerpt: To confirm that the effects on EAE were mediated by the activation of AHR, we used C57BL/6 mice carrying the d allele of the ahr gene (AHR-d mice). This allele codes for a mutant AHR with a 10 fold reduction in its affinity for TCDD and other ligands (Okey et al., Mol Pharmacol. 35, 823-30 (1989)) due to mutations in its ligand binding sites.

Data set [2] concerns MOG35-55-specific Treg and Teff. Description: MOG35-55-specific Treg and Teff by MHC class II tetramer FACS. Type of data set: in vivo, mouse. Conditions: Foxp3gfp mice, ITE 200 mg/mice intraperitoneal daily. As to the method:
To investigate the effect of AHR activation by ITE on the frequency of MOG35-55 specific Treg and effector T cells (Teff), Foxp3^gpf knock in mice were immunized with MOG35-55/CFA, treated daily with intreaperitoneal ITE ([…]) and MOG35-55-specific Treg (CD4^+ FoxP3:GFP^+) and Teff (CD4^+ FoxP3:GFP^−) were analyzed by FACS using recombinant MHC class II tetramers containing […] or the control peptide TMEV70-86.

The conditions of data set [3]: in vivo; cited from earlier work.
[4] abbreviates: ITE ip daily, MOG35-55/CFA, spleens.
Setting [5] is: ITE orally daily, MOG35-55/CFA, spleens.

With `Clc1cc2c(cc1Cl)Oc1cc(Cl)c(Cl)cc1O2` [TCDD, 2,3,7,8 tetrachlorodibenzo-p-dioxin], the “number of CD4+FoxP3+ Treg” value in the data set with CD4+Foxp3+ Treg (TCDD ip, draining lymph nodes, without immunization) is given as “small increase”. Besides, the “frequency of CD4+Foxp3+ T cells” value in the data set with CD4+Foxp3+ Treg (TCDD ip, spleen, 21 days after EAE induction) is “significant increase in the frequency”. Further, in the data set with CD4+Foxp3+ Treg (natural Treg depleted with antibodies to CD25 prior to TCDD treatment, day 7), the “rebound in Treg numbers” value was “faster rebound in their Treg numbers”. For the same compound, the “number of CD4+Foxp3+ T cells” value with CD4+Foxp3+ Treg (single TCDD ip followed by MOG35-55/CFA immunization, draining lymph nodes 10 days later) is given as “significant increase”. Further, in the data set with CD4+Foxp3:GFP+ Treg (Treg expanded in vivo by TCDD administration and MOG35-55 immunization), the “MOG35-55-specific suppressive activity of CD4+Foxp3:GFP+ T cells” value is recorded as “increased MOG35-55-specific suppressive activity”. Also, the “proliferation and suppressive activity of CD4+Foxp3:GFP+ Treg purified from naïve mice” value with CD4+Foxp3:GFP+ Treg (stimulation with antibodies to CD3 and CD28 and TCDD) was “did not proliferate and did not show increased suppressive activity”. In the data set with CD11c+ and CD11b+ cells, the “CD11b+ MHC class II expression” value is on record as “significant increase” and the “CD11c+ MHC class II expression” value was “significant decrease”. Further, in data set [1], the “conversion of CD4+Foxp3:GFP- CD90.2 donor T cells into Treg cells” value is “significant”. The “levels of CD4+ Foxp3+ Treg” value in the data set on CD4+ Foxp3+ Treg is “did not increase the levels”.

As for `COC(=O)c1csc(C(=O)c2c[nH]c3ccccc23)n1` [ITE, 2-(1′H-indole-3′-carbonyl)-thiazole-4-carboxylic acid methyl ester], the “number of CD4+FoxP3:GFP+ Treg in blood and spleen” value in the data set on CD4+Foxp3+ Treg (Foxp3gfp knock in mice, ITE ip daily, ten days after MOG35-55/CFA) is “significant increase in the number”. Further, in the data set on CD4+Foxp3+ Treg (setting [4]), the “levels of LAP+ regulatory T cells” value was “did lead to significant alterations” and the “number of CD4+FoxP3+ Treg” value was “significant increase in the number”. In addition, in the data set on CD4+Foxp3+ Treg (setting [5]), the “levels of LAP+ regulatory T cells” value is on record as “did lead to significant alterations” and the “number of CD4+FoxP3+ Treg” value is reported as “significant increase in the number”. The “MOG35-55-specific suppressive activity of CD4+ FoxP3:GFP+ Treg” value with CD4+Foxp3:GFP+ Treg (Treg from ITE-treated mice, 2D2 Teff as responders) was “increased MOG35-55-specific suppressive activity”. Moreover, in the data set on CD11c+ and CD11b+ cells, the “CD11b+ MHC class II expression” value is on record as “significant increase” and the “CD11c+ MHC class II expression” value is given as “significant decrease”. Moreover, in data set [2], the “frequency of MOG35-55-specific Teff” value is given as “decrease in the frequency” and the “frequency of MOG35-55-specific Treg” value is listed as “concomitant increase in the frequency”. Moreover, the toxic effects result in data set [3] is on record as “do not display the toxic effects”.
